Results on twelve compounds are retold here after PubChem BioAssay (NCI).

Structures are written as SMILES.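 Five concentrations, 48 hours, 96-well plates. Abbreviation: GI50, concentration required for 50% inhibition of growth. TGI is the concentration that stops growth completely.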

Some test systems named below: SN12C renal; MALME-3M melanoma; SF-539 CNS; EKVX NSCLC; HL-60(TB) leukemia; MOLT-4 leukemia; ACHN renal; M14 melanoma; HOP-62 NSCLC; SNB-75 CNS.
What all share (assay): DTP human tumour cell line panel, 48 h

In general, TGI refers to the concentration at which net growth stops. `CCCCCCCCCCCCCCCc1nc(SCC(=O)O)n[nH]1`: the total growth inhibition concentration (TGI) in the experiment on SN12C renal, in the experiment on MALME-3M melanoma, with SF-539 CNS, with EKVX NSCLC, in the experiment with HL-60(TB) leukemia and in the experiment with MOLT-4 leukemia was greater than 100 µM in each case. For the same compound, the total growth inhibition concentration (TGI) in the experiment with ACHN renal was greater than 100 µM; in the experiment on M14 melanoma it was 42.4 µM; in the experiment with HOP-62 NSCLC, greater than 100 µM.

What is called GI50 is the concentration that inhibits growth by half. With `COC(=O)/C=C/c1cc(OC)c2c(c1)[C@@H](C(=O)OC)[C@H](c1ccc(OC)c(OC)c1)O2`, the GI50 with SN12C renal is 6.44 µM; in the experiment with MALME-3M melanoma it was greater than 100 µM; with SF-539 CNS it was 1.22 µM; with EKVX NSCLC it was 4.62 µM; in the experiment with SNB-75 CNS, 0.432 µM; in the experiment on MOLT-4 leukemia it was 1.73 µM. In addition, the GI50 in the experiment with ACHN renal is 4.45 µM; with M14 melanoma, 0.816 µM; in the experiment on HOP-62 NSCLC, 4.33 µM. Also, the total growth inhibition concentration (TGI) with SN12C renal, in the experiment on MALME-3M melanoma, in the experiment on SF-539 CNS, with EKVX NSCLC, in the experiment with SNB-75 CNS and with MOLT-4 leukemia was greater than 100 µM throughout. The concentration for total growth inhibition (TGI) with ACHN renal, in the experiment on M14 melanoma and in the experiment on HOP-62 NSCLC was greater than 100 µM in each case.

Turning to `COc1cc(/C=C/C(=O)c2ccc(SC)cc2)cc(OC)c1OC`, the GI50 in the experiment on SN12C renal is 3.17 µM; in the experiment on MALME-3M melanoma, 6.31 µM; in the experiment on SF-539 CNS it was 11.7 µM; in the experiment on EKVX NSCLC, 14.9 µM; with SNB-75 CNS, 6.08 µM; in the experiment with MOLT-4 leukemia it was 3.14 µM. Moreover, the GI50 with ACHN renal was 6.98 µM; in the experiment with M14 melanoma, 10.5 µM; with HOP-62 NSCLC, 14.7 µM. Also, the TGI in the experiment with SN12C renal turned out to be 8.98 µM; in the experiment with MALME-3M melanoma, 26.1 µM; in the experiment on SF-539 CNS it was 27.2 µM; in the experiment on EKVX NSCLC it was 29.4 µM; in the experiment with SNB-75 CNS, 20.5 µM; with MOLT-4 leukemia, 8.65 µM. The concentration for total growth inhibition (TGI) in the experiment with ACHN renal was 19.5 µM; in the experiment with M14 melanoma, 22.4 µM; in the experiment on HOP-62 NSCLC, 29.5 µM.

On to `O=C(NCCOCCO)c1ccc(O)cc1`, for which the concentration for total growth inhibition (TGI) in the experiment on SN12C renal is greater than 100 µM; with SF-539 CNS, greater than 100 µM; with EKVX NSCLC, 42.9 µM; with HL-60(TB) leukemia it was greater than 100 µM; in the experiment with MOLT-4 leukemia, greater than 100 µM; in the experiment with ACHN renal, greater than 100 µM. Also, the TGI in the experiment on M14 melanoma and in the experiment with HOP-62 NSCLC was greater than 100 µM each time.

On to `COc1ccc(/C=N/C2=C(C#N)C(c3ccccc3)c3ccc4ccccc4c3O2)cc1` (centres undefined), for which the GI50 in the experiment on SN12C renal is 0.68 µM; in the experiment on SF-539 CNS it was 0.244 µM; with HL-60(TB) leukemia, 0.321 µM; with MOLT-4 leukemia, 0.516 µM; in the experiment with ACHN renal it was 0.69 µM; with M14 melanoma, 0.336 µM. For the same compound, in the experiment with HOP-62 NSCLC, the 50% growth inhibitory concentration (GI50) was 0.373 µM. The concentration for total growth inhibition (TGI) was greater than 100 µM in the experiment with SN12C renal; greater than 100 µM with MALME-3M melanoma; 1.05 µM with SF-539 CNS; greater than 100 µM in the experiment on EKVX NSCLC; 1.44 µM in the experiment on HL-60(TB) leukemia; greater than 100 µM in the experiment with MOLT-4 leukemia. Moreover, the TGI in the experiment on ACHN renal, with M14 melanoma and in the experiment with HOP-62 NSCLC was greater than 100 µM throughout.

As for `O=C1C2Cc3ccccc3CN2C(=O)N1CCN1CCOCC1` (centres undefined), the concentration for total growth inhibition (TGI) with SN12C renal, with MALME-3M melanoma, with SF-539 CNS, with HL-60(TB) leukemia, in the experiment on MOLT-4 leukemia and in the experiment on ACHN renal was greater than 100 µM in each case. Also, the TGI with M14 melanoma and in the experiment on HOP-62 NSCLC was greater than 100 µM in each case.

As for `c1ccc2c(c1)-c1nc3ccccc3cc1C2N1CCOCC1` (centres undefined), the TGI in the experiment with SN12C renal, in the experiment on MALME-3M melanoma, in the experiment on EKVX NSCLC, in the experiment on SNB-75 CNS, in the experiment with HL-60(TB) leukemia and in the experiment on MOLT-4 leukemia was greater than 100 µM in each case. In addition, the concentration for total growth inhibition (TGI) in the experiment on ACHN renal, with M14 melanoma and in the experiment with HOP-62 NSCLC was greater than 100 µM throughout.

`NCCCSCC(=O)O`: the TGI in the experiment with SN12C renal, in the experiment with MALME-3M melanoma, with SF-539 CNS, with EKVX NSCLC, with SNB-75 CNS and in the experiment with MOLT-4 leukemia was greater than 100 µM in each case. This compound yielded a total growth inhibition concentration (TGI) in the experiment with ACHN renal greater than 100 µM.

Turning to `Nc1nc(-c2ccccc2Cl)cc(-c2ccc(Cl)cc2Cl)n1`, the GI50 was 13.1 µM in the experiment with SN12C renal; 17.7 µM in the experiment with MALME-3M melanoma; 7.39 µM with SF-539 CNS; 3.14 µM in the experiment on HL-60(TB) leukemia; 4.82 µM in the experiment on MOLT-4 leukemia; 10.4 µM in the experiment on ACHN renal. The values for the GI50 in the experiment with M14 melanoma and in the experiment on HOP-62 NSCLC were 5.95 µM and 8.21 µM, respectively. Also, the TGI in the experiment with SN12C renal is greater than 100 µM; in the experiment with MALME-3M melanoma, greater than 100 µM; in the experiment on SF-539 CNS, 67 µM; in the experiment on HL-60(TB) leukemia it was 17.3 µM; in the experiment on MOLT-4 leukemia it was greater than 100 µM; in the experiment on ACHN renal, greater than 100 µM. In addition, the TGI in the experiment on M14 melanoma and in the experiment with HOP-62 NSCLC was greater than 100 µM each time.

With `OC(c1cc2c(Cl)cc(Cl)cc2c2cc(C(F)(F)F)ccc12)C1CCCCN1` (centres undefined), the GI50 is 1.8 µM in the experiment on SN12C renal; 1.85 µM in the experiment with MALME-3M melanoma; 1.79 µM with SNB-75 CNS; 1.85 µM in the experiment on HL-60(TB) leukemia; 1.82 µM with ACHN renal; 2.04 µM in the experiment on M14 melanoma. Also, the GI50 in the experiment on HOP-62 NSCLC is 1.72 µM. Also, the TGI in the experiment with SN12C renal was 3.38 µM; with MALME-3M melanoma it was 3.91 µM; in the experiment with SNB-75 CNS it was 3.36 µM; with HL-60(TB) leukemia, 3.71 µM; in the experiment with ACHN renal, 3.65 µM; in the experiment on M14 melanoma, 4.12 µM. Moreover, in the experiment on HOP-62 NSCLC, the TGI came out at 3.47 µM.

With `Cn1c(=O)c2nc3sc4ccccc4c(=N)n3c2n(C)c1=O`, the concentration for total growth inhibition (TGI) in the experiment with SN12C renal, in the experiment on MALME-3M melanoma, in the experiment on SF-539 CNS, in the experiment on EKVX NSCLC, in the experiment on HL-60(TB) leukemia and in the experiment on MOLT-4 leukemia was greater than 100 µM in each case. Further, the TGI with ACHN renal and in the experiment with HOP-62 NSCLC was greater than 100 µM throughout.

Regarding `CC(=O)Oc1cc(OC(C)=O)c(OC(C)=O)c2c1CC1C(=O)C3(CCc4ccccc43)C(=O)C1C2` (centres undefined), the concentration for total growth inhibition (TGI) with SN12C renal is 31 µM; with MALME-3M melanoma it was 20.1 µM; with EKVX NSCLC, 37.6 µM; in the experiment with SNB-75 CNS, 16.7 µM; with HL-60(TB) leukemia it was 22.4 µM; in the experiment on ACHN renal, 26.2 µM. Moreover, the TGI is greater than 100 µM in the experiment with M14 melanoma and 50.8 µM with HOP-62 NSCLC.
